# Values joined by “and” are separate entries in the source; they are usually repeats but may differ in a detail not shown here. Equal values may be shown once. Active and inactive are the calls of the source. The rule behind the calls is not given here.
# Experiments:
# [1] = target: NS3h 2a (JFH1); test: strain-dependent HCV NS3h unwinding inhibition – biochemical, real-time fluorescence, genotypes 2a and 1b, Set 2, selectivity assay for HCV NS3 helicase inhibitor project, late-stage follow-up (AID 504419); conditions: Recombinant NS3 helicase
# [2] = target: NS3h 1b (con1); test: as above; conditions: Recombinant NS3 helicase
compound,measurement,setting,value
Cc1ccc2nc(-c3ccc4nc(-c5ccc(NC(=O)c6ccc7nc(-c8ccc(NC(=O)OCC9c%10ccccc%10-c%10ccccc%109)cc8)sc7c6)cc5)sc4c3)sc2c1S(=O)(=O)O,IC50,[1],2.09 µM and > 28 µM (inactive)
Cc1ccc2nc(-c3ccc4nc(-c5ccc(NC(=O)c6ccc7ccccc7c6)cc5)sc4c3)sc2c1S(=O)(=O)O,IC50,[1],1.71 µM
same,IC50,[2],2.93 µM
COc1cc2oc(=O)cc(-c3ccc(-c4ccc(NC(C)=O)cc4)cc3)c2c(OC)c1OC,IC50,[1],> 100 µM (inactive)
same,IC50,[2],> 100 µM (inactive)
COc1cc(Br)cc(C2C(C(=O)c3ccc(C)o3)=C(O)C(=O)N2Cc2ccco2)c1OC (centres undefined),IC50,[1],> 100 µM (inactive)
same,IC50,[2],> 100 µM (inactive)
COc1ccc(C(=O)Nc2ccc(-c3nc4ccc(-c5nc6ccc(C)c(S(=O)(=O)O)c6s5)cc4s3)cc2)cc1,IC50,[1],5.7 µM
same,IC50,[2],8.41 µM
CCCCOc1ccc(C2C(C(=O)c3ccc(C)o3)=C(O)C(=O)N2c2cc(C)on2)cc1 (centres undefined),IC50,[1],> 100 µM (inactive)
same,IC50,[2],> 100 µM (inactive)
CC1CCCCC1NC(=O)COC(=O)c1c2c(nc3ccccc13)/C(=C/c1ccco1)CC2 (centres undefined),IC50,[1],> 100 µM (inactive)
same,IC50,[2],inactive
Cc1ccc2nc(-c3ccc4nc(-c5ccc(NC(=O)c6ccc(C(C)(C)C)cc6)cc5)sc4c3)sc2c1S(=O)(=O)O,IC50,[1],4.96 µM
same,IC50,[2],inactive
Nc1c(C(=O)Nc2ccccc2F)sc2nc(-c3ccco3)ccc12,IC50,[1],> 100 µM (inactive)
same,IC50,[2],> 100 µM (inactive)
Cc1ccc2nc(-c3ccc4nc(-c5ccc(NC(=O)c6ccc(C(F)(F)F)cc6)cc5)sc4c3)sc2c1S(=O)(=O)O,IC50,[1],2.51 µM
same,IC50,[2],1.76 µM
COc1cc(OC)c2ccc(=O)oc2c1[C@H](CCN1CCN(c2ccccc2)CC1)c1ccc(N(C)C)cc1,IC50,[1],> 100 µM (inactive)
same,IC50,[2],> 100 µM (inactive)
COc1cc2oc(=O)cc(-c3ccc(-c4ccc(CO)cc4)cc3)c2c(OC)c1OC,IC50,[1],> 100 µM (inactive)
same,IC50,[2],> 100 µM (inactive)
Cc1ccc(C(=O)Nc2ccc(-c3nc4ccc(-c5nc6ccc(C)c(S(=O)(=O)O)c6s5)cc4s3)cc2)cc1,IC50,[1],3.35 µM
same,IC50,[2],3.69 µM
O=c1c(O)cccc2cc(O)c(O)c(O)c12,IC50,[1],> 100 µM (inactive)
same,IC50,[2],> 100 µM (inactive)
CCCCCOc1ccc(C2C(C(=O)c3ccc(C)o3)=C(OC)C(=O)N2c2cc(C)on2)cc1 (centres undefined),IC50,[1],> 100 µM (inactive)
same,IC50,[2],> 100 µM (inactive)
NS(=O)(=O)c1ccc2nc(NC(=O)c3ccc4ncoc4c3)sc2c1,IC50,[1],inactive
same,IC50,[2],> 26.5 µM (inactive)
CCOc1ccc(C2C(C(=O)c3ccc(C)o3)=C(O)C(=O)N2Cc2ccco2)cc1 (centres undefined),IC50,[1],> 100 µM (inactive)
same,IC50,[2],> 100 µM (inactive)
Cc1ccc(NC(=O)C2=C(c3ccccc3)S(=O)(=O)CCS2(=O)=O)cc1,IC50,[1],> 100 µM (inactive)
same,IC50,[2],> 100 µM (inactive)
Cc1ccc2nc(-c3ccc(NC(=S)Nc4ccccc4Br)cc3)sc2c1,IC50,[1],> 100 µM (inactive)
same,IC50,[2],> 24 µM (inactive)
Cc1ccc2nc(-c3ccc4nc(-c5ccc(NC(=O)c6ccc(Cl)cc6)cc5)sc4c3)sc2c1S(=O)(=O)O,IC50,[1],2.66 µM
same,IC50,[2],4.31 µM
Cc1ccc(NC(=O)Nc2ccc(-c3nc4ccc(-c5nc6ccc(C)c(S(=O)(=O)O)c6s5)cc4s3)cc2)cc1,IC50,[1],3.21 µM
same,IC50,[2],5.93 µM
Cc1ccc2nc(-c3ccc4nc(-c5ccc(N)cc5)sc4c3)sc2c1S(=O)(=O)O,IC50,[1],inactive
same,IC50,[2],inactive
CCCCOc1ccccc1C(=O)NNC(=S)NC(=O)c1ccccc1[N+](=O)[O-],IC50,[1],> 100 µM (inactive)
same,IC50,[2],> 100 µM (inactive)
NC(=S)N/N=C/c1ccc(C23CC4CC(CC(C4)C2)C3)cc1,IC50,[1],> 100 µM (inactive)
same,IC50,[2],> 100 µM (inactive)
Cc1ccc2nc(-c3ccc4nc(-c5ccc(NC(=O)c6ccc(NC(=O)OCC7c8ccccc8-c8ccccc87)cc6)cc5)sc4c3)sc2c1S(=O)(=O)O,IC50,[1],6.04 µM
same,IC50,[2],6.56 µM

# — PubChem BioAssay AID504419 (The Scripps Research Institute Molecular Screening Center, 2011)
